According to ChEMBL document CHEMBL1909046, “DrugMatrix in vitro pharmacology data”:

Experiments:
Acetylcholinesterase = Acetylcholinesterase (Homo sapiens, UniProt P22303); experiment: DRUGMATRIX: Acetylcholinesterase enzyme inhibition (substrate: acetylthiocholine); type: cell-based, HEK293; details: Not Active = under 50% inhibition at 10 µM
Adenosine receptor A2a = Adenosine receptor A2a (Homo sapiens, UniProt P29274); experiment: DRUGMATRIX: Adenosine A2A radioligand binding (ligand: […]); type: cell membranes, HEK293, Membrane; details: hek293; Not Active = under 50% inhibition at 10 µM
Cathepsin G = target: T1, Cathepsin G (Homo sapiens, UniProt P08311); type: tissue-based; details: neutrophil;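 note: inhibition of Cathepsin G enzyme activity, tested on an AMC-conjugated peptide substrate; in other assays of this panel Not Active means under 50% inhibition at 10 µM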
T1 sequence (P08311 whole entry): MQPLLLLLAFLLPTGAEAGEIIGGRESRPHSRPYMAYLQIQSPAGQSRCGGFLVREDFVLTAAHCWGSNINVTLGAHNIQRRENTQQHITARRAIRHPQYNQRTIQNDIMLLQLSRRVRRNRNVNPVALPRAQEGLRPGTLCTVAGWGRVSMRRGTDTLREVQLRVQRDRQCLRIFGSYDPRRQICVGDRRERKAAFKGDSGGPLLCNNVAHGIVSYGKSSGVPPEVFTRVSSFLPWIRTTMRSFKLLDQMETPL

Histamine H2 receptor = Histamine H2 receptor (Homo sapiens, UniProt P25021); type: cell membranes, CHO-K1, Membrane; details: cho-k1; note: in other assays of this panel Not Active means under 50% inhibition at 10 µM
[1] = target: Sodium-dependent dopamine transporter (Homo sapiens, UniProt Q01959); experiment: DRUGMATRIX: Dopamine Transporter radioligand binding (ligand: [125I] RTI-55); type: cell membranes, CHO-K1, Membrane; details: Not Active = under 50% inhibition at 10 µM
[2] = target: T2, Muscarinic acetylcholine receptor M4 (Homo sapiens, UniProt P08173); type: cell membranes, CHO-K1, Membrane; note: in other assays of this panel Not Active means under 50% inhibition at 10 µM
T2 sequence (P08173 whole entry): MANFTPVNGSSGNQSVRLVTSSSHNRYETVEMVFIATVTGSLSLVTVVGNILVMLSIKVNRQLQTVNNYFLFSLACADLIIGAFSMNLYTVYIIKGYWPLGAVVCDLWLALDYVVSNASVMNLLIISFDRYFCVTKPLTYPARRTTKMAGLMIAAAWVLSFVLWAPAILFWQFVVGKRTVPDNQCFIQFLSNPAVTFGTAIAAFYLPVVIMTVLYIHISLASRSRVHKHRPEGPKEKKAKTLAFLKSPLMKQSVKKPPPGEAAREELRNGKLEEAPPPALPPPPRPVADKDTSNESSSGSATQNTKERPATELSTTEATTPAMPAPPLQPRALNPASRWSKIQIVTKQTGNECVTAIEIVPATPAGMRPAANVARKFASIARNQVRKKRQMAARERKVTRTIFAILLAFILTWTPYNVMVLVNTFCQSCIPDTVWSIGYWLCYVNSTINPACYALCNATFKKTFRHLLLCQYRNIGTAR

Chain of Sodium-dependent dopamine transporter (Q01959 whole entry): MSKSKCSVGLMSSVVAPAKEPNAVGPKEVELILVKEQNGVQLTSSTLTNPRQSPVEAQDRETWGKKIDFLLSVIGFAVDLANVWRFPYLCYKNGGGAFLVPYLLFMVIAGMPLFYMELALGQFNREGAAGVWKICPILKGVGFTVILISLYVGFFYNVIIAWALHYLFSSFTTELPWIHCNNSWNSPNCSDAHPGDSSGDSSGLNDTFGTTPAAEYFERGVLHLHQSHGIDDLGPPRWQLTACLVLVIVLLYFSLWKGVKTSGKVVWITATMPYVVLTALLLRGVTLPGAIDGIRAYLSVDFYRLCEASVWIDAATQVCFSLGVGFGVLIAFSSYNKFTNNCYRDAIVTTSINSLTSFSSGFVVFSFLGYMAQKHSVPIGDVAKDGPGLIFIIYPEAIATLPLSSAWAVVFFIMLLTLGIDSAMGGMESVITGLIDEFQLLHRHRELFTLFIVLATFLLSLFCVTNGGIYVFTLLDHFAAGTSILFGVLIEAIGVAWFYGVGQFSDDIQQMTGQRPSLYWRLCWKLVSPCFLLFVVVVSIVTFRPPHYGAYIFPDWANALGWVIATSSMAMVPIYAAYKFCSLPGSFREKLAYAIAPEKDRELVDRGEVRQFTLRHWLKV
Chain of Adenosine receptor A2a (P29274 whole entry): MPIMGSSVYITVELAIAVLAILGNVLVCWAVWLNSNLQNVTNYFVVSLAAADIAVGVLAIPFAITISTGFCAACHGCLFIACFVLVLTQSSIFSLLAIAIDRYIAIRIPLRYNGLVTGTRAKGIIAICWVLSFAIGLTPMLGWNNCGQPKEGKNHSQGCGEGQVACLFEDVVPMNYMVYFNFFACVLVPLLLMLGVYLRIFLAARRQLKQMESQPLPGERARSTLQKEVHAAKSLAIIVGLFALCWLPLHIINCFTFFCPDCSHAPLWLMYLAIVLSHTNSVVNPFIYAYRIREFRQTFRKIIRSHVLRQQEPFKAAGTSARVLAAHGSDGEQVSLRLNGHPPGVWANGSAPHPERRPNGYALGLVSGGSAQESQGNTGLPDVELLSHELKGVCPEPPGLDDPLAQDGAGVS
Chain of Acetylcholinesterase (P22303 whole entry): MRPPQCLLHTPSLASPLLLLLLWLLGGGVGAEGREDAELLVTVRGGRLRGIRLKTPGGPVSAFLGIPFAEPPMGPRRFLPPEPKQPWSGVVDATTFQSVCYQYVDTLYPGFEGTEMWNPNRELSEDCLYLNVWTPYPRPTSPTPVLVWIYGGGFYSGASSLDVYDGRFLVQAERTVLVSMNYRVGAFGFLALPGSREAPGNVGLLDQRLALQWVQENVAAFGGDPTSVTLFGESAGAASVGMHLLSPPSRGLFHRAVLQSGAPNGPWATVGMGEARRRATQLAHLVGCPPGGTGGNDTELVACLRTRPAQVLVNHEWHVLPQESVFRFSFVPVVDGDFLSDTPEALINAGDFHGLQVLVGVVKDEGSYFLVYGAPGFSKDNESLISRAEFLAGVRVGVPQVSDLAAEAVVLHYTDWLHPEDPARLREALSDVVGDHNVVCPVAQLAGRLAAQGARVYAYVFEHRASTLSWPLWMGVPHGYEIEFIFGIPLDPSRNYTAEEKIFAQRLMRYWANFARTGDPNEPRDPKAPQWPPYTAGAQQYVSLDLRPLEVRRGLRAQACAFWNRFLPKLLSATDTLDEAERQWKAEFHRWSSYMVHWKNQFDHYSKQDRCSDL
Chain of Histamine H2 receptor (P25021 whole entry): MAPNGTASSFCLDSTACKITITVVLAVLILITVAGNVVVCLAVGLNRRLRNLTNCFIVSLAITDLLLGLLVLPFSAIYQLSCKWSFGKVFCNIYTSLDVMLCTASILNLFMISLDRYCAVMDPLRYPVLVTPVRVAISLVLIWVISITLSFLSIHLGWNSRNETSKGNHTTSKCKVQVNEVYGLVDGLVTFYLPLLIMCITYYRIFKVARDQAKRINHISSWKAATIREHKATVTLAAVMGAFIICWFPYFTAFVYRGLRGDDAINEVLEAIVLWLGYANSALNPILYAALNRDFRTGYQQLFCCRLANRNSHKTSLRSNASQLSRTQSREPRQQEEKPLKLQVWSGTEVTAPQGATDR

Compound	IC50 (Acetylcholinesterase; hek293)	IC50 (Adenosine receptor A2a)	IC50 (Cathepsin G)	IC50 (Histamine H2 receptor)	IC50 ([1]; cho-k1)	IC50 ([2]; cho-k1)	IC50 ([2]; read-out: IC50)	Ki ([2]; read-out: Ki)	Ki (Acetylcholinesterase; hek293)	Ki (Adenosine receptor A2a)	Ki (Cathepsin G)	Ki (Histamine H2 receptor)	Ki ([1]; cho-k1)	Ki ([2]; cho-k1)	IC50 ([1]; read-out: IC50)	Ki ([1]; read-out: Ki)	IC50 (Acetylcholinesterase; read-out: IC50)
CC(c1cc2ccccc2s1)N(O)C(N)=O (stereo not drawn) [ZILEUTON]	Not Active	Not Active	Not Active	Not Active	Not Active	Not Active											
O=C1Nc2ccc(Cl)cc2C(c2ccccc2Cl)=NC1O (stereo not drawn) [LORAZEPAM]	Not Active	Not Active	Not Active	Not Active	Not Active	Not Active											
CCN(CC)CCOc1ccc(/C(=C(/Cl)c2ccccc2)c2ccccc2)cc1 [ENCLOMIPHENE]	Not Active	Not Active	Not Active	Not Active			1.65 µM	0.23 µM									
CC(C)Cc1ccc([C@@H](C)C(=O)O)cc1 [(R)-IBUPROPHEN]	Not Active	Not Active	Not Active	Not Active	Not Active	Not Active											
O=C(Nc1ccc(Br)cc1)c1cc(Br)cc(Br)c1O [TRIBROMSALAN]	Not Active	Not Active	Not Active	Not Active	Not Active	Not Active											
CN(C/C=C/C#CC(C)(C)C)Cc1cccc2ccccc12 [TERBINAFINE]	Not Active	Not Active	Not Active	Not Active	Not Active	Not Active											
Cn1c(=O)c2nc[nH]c2n(C)c1=O.O [THEOPHYLLINE]	Not Active		Not Active	Not Active	Not Active	Not Active											
CC(C)NCC(O)c1ccc(NS(C)(=O)=O)cc1 (stereo not drawn) [SOTALOL]	Not Active	Not Active	Not Active	Not Active	Not Active	Not Active											
CO[C@@H]1[C@@H](OC)[C@H](C)[C@@](O)(CC(=O)O)O[C@H]1[C@H](C)[C@H]1O[C@@]2(CC[C@@](C)([C@H]3CC[C@@](C)([C@@H]4O[C@@H]([C@H]5O[C@](C)(O)[C@H](C)C[C@@H]5C)C[C@@H]4O[C@@H]4C[C@H](OC)[C@@H](OC)[C@H](C)O4)O3)O2)C[C@H](O)[C@H]1C [MADURAMICIN ACID]	Not Active	Not Active	Not Active	Not Active	Not Active	Not Active											
SODIUM ORTHOVANAD	Not Active	Not Active	Not Active	Not Active	Not Active	Not Active			Not Active	Not Active	Not Active	Not Active	Not Active	Not Active			
Cc1cccc(C)c1OCC(C)N (stereo not drawn) [MEXILETINE]	Not Active	Not Active	Not Active	Not Active	Not Active	Not Active											
CC(C)NCC(O)c1ccc(O)c(O)c1 (stereo not drawn) [ISOPROTERENOL]	Not Active	Not Active	Not Active	Not Active	Not Active	Not Active											
NC1CCN(c2nc3c(cc2F)c(=O)c(C(=O)O)cn3-c2ccc(F)cc2F)C1 (stereo not drawn) [TOSUFLOXACIN]	Not Active	Not Active	Not Active	Not Active	Not Active	Not Active											
COc1ccc(CCN(C)CCCC(C#N)(c2ccc(OC)c(OC)c2)C(C)C)cc1OC (stereo not drawn)	Not Active	Not Active	Not Active		Not Active	Not Active											
CN[C@H]1CC[C@@H](c2ccc(Cl)c(Cl)c2)c2ccccc21 [SERTRALINE]	Not Active	Not Active	Not Active	Not Active			2.63 µM	0.367 µM									
O=C(Oc1ccccc1C(=O)O)c1ccccc1O [SALSALATE]	Not Active	Not Active	Not Active	Not Active	Not Active	Not Active											
NC(=O)N1C(=O)/C(=C(\O)c2cccs2)c2cc(Cl)ccc21 [TENIDAP]	Not Active	Not Active	Not Active	Not Active	Not Active	Not Active											

Compound	IC50 (Acetylcholinesterase; hek293)	IC50 (Adenosine receptor A2a)	IC50 (Cathepsin G)	IC50 (Histamine H2 receptor)	IC50 ([1]; cho-k1)	IC50 ([2]; cho-k1)	IC50 ([2]; read-out: IC50)	Ki ([2]; read-out: Ki)	Ki (Acetylcholinesterase; hek293)	Ki (Adenosine receptor A2a)	Ki (Cathepsin G)	Ki (Histamine H2 receptor)	Ki ([1]; cho-k1)	Ki ([2]; cho-k1)	IC50 ([1]; read-out: IC50)	Ki ([1]; read-out: Ki)	IC50 (Acetylcholinesterase; read-out: IC50)
O=C1C(CC[S+]([O-])c2ccccc2)C(=O)N(c2ccccc2)N1c1ccccc1 (stereo not drawn) [SULFINPYRAZONE]	Not Active	Not Active	Not Active	Not Active	Not Active	Not Active											
C[C@H]1C[C@@H]2[C@H]([C@@H](O)C[C@@]3(C)[C@H]2CC[C@]3(O)C(=O)CO)[C@@]2(C)C=CC(=O)C=C12 [METHYLPREDNISOLONE]	Not Active	Not Active	Not Active	Not Active	Not Active	Not Active											
N#Cc1ccc(C(c2ccc(C#N)cc2)n2cncn2)cc1 [LETROZOLE]	Not Active	Not Active	Not Active	Not Active	Not Active	Not Active											
Fc1ccc(C(c2ccc(F)cc2)N2CCN(C/C=C/c3ccccc3)CC2)cc1 [FLUNARIZINE]	Not Active	Not Active	Not Active	Not Active			5.66 µM	0.789 µM							0.584 µM	0.464 µM	
COc1cc2nc(N3CCN(C(=O)C4CCCO4)CC3)nc(N)c2cc1OC (stereo not drawn) [TERAZOSIN]	Not Active	Not Active	Not Active	Not Active	Not Active	Not Active											
O=C(O)c1cn(-c2ccc(F)cc2)c2cc(N3CCNCC3)c(F)cc2c1=O [SARAFLOXACIN]	Not Active	Not Active	Not Active	Not Active	Not Active	Not Active											
CO[C@H]1/C=C/O[C@@]2(C)Oc3c(C)c(O)c4c(O)c(c(/C=N/N5CCN(C6CCCC6)CC5)c(O)c4c3C2=O)NC(=O)/C(C)=C\C=C\[C@H](C)[C@H](O)[C@@H](C)[C@@H](O)[C@@H](C)[C@H](OC(C)=O)[C@@H]1C [RIFAPENTINE]	Not Active	Not Active	Not Active	Not Active	Not Active	Not Active											
CCCCOc1cc(CC2CNC(=O)N2)ccc1OC (stereo not drawn) [RO-201724]	Not Active	Not Active	Not Active	Not Active	Not Active	Not Active											
CC[C@@H](C(=O)[C@@H](C)[C@@H](O)[C@H](C)[C@@H]1O[C@@H]([C@@H](CC)C(=O)O)CC[C@@H]1C)[C@H]1O[C@]2(C=C[C@@H](O)[C@]3(CC[C@@](C)([C@H]4CC[C@](O)(CC)[C@H](C)O4)O3)O2)[C@H](C)C[C@@H]1C [SALINOMYCIN]	Not Active	Not Active	Not Active	Not Active	Not Active	Not Active											
CN(C)CCOC(c1ccccc1)c1ccccc1 [DIPHENHYDRAMINE]	Not Active	Not Active	Not Active	Not Active	Not Active												
CCCCNc1ccc(C(=O)OCCN(C)C)cc1 [TETRACAINE]	Not Active	Not Active	Not Active	Not Active	Not Active	Not Active											
CCN(CC)CCNC(=O)c1cc(S(C)(=O)=O)ccc1OC [TIAPRIDE]	Not Active	Not Active	Not Active	Not Active	Not Active	Not Active											
MANGANESE CHLORIDE ANHYDROUS	Not Active	Not Active	Not Active	Not Active	Not Active	Not Active			Not Active	Not Active	Not Active	Not Active	Not Active	Not Active			
O.O.O.O.O.O.[Cl-].[Cl-].[Sr+2] [STRONTIUM CHLORIDE HEXAHYDRATE]	Not Active	Not Active	Not Active	Not Active	Not Active	Not Active											
CNC1(c2ccccc2Cl)CCCCC1=O (stereo not drawn) [KETAMINE]	Not Active	Not Active	Not Active	Not Active	Not Active	Not Active											
CCN(CC)CC(=O)Nc1c(C)cccc1C [LIDOCAINE]	Not Active	Not Active	Not Active	Not Active	Not Active	Not Active											
Clc1ccc(COC(Cn2ccnc2)c2ccc(Cl)cc2Cl)cc1 (stereo not drawn) [ECONAZOLE]			Not Active				2.12 µM	0.296 µM									13.7 µM
